Measured values reported in ChEMBL document CHEMBL5136972, “Targeting SARS-CoV-2 Proteases and Polymerase for COVID-19 Treatment: State of the Art and Future Opportunities” (J Med Chem, 2022).

Assays:
[1] = molecular target: T1, Replicase polyprotein 1ab (Severe acute respiratory syndrome coronavirus 2, UniProt P0DTD1); experiment: Inhibition of SARS CoV-2 PL protease
SARS-CoV-2 [2] = experiment: Antiviral activity against SARS CoV-2 infected in African green monkey Vero cells assessed as inhibition of plaque formation by viral plaque assay; type: functional, organism-based; conditions: Severe acute respiratory syndrome coronavirus 2, Vero
[3] = molecular target: T1, Replicase polyprotein 1ab; experiment: Inhibition of N-terminal recombinant SARS CoV 2 3CL protease expressed in Escherichia coli BL21-DE3 cells using MCA-AVLQSGFR-Lys(Dnp)-Lys-NH2 as substrate by FRET assay
[4] = Cytotoxicity against African green monkey Vero E6 cells by CCK-8 assay; type: toxicity, cell-based, Vero C1008; conditions: chlorocebus sabaeus
[5] = Half life in CD-1 mouse at 5 mg/kg, iv measured after up to 24 hrs by LC-MS/MS analysis; type: ADME, organism-based; conditions: in vivo
[6] = Clearance in CD-1 mouse at 5 mg/kg, iv measured after up to 24 hrs by LC-MS/MS analysis; type: ADME, organism-based; conditions: in vivo
[7] = Cmax in CD-1 mouse at 5 mg/kg, iv measured after up to 24 hrs by LC-MS/MS analysis; type: ADME, organism-based; set-up: dose 5 mg/kg, time < 24 hrs, route iv; conditions: in vivo
[8] = Bioavailability in CD-1 mouse at 5 mg/kg, iv measured after up to 24 hrs by LC-MS/MS analysis; type: ADME, organism-based; conditions: in vivo
[9] = Half life in Sprague-Dawley rat at 10 mg/kg, iv measured after up to 24 hrs by LC-MS/MS analysis; type: ADME, organism-based; conditions: in vivo
[10] = Half life in Beagle dog at 5 mg/kg, iv measured after up to 24 hrs by LC-MS/MS analysis; type: ADME, organism-based, Canis lupus familiaris; conditions: in vivo
[11] = Clearance in Sprague-Dawley rat at 10 mg/kg, iv measured after up to 24 hrs by LC-MS/MS analysis; type: ADME, organism-based; conditions: in vivo
[12] = Clearance in Beagle dog at 5 mg/kg, iv measured after up to 24 hrs by LC-MS/MS analysis; type: ADME, organism-based, Canis lupus familiaris; conditions: in vivo
[13] = AUClast in Sprague-Dawley rat at 10 mg/kg, iv measured after up to 24 hrs by LC-MS/MS analysis; type: ADME, organism-based; set-up: time < 24 hrs, dose 10 mg/kg, route iv; conditions: in vivo
[14] = AUClast in Beagle dog at 5 mg/kg, iv measured after up to 24 hrs by LC-MS/MS analysis; type: ADME, organism-based, Canis lupus familiaris; set-up: time < 24 hrs, dose 5 mg/kg, route iv; conditions: in vivo
[15] = molecular target: T1, Replicase polyprotein 1ab; experiment: Inhibition of C-terminal 6-His-tagged recombinant SARS CoV-2 3CL protease expressed in Escherichia coli BL21-Gold DE3 cells by FRET assay
SARS-CoV-2 [16] = experiment: Antiviral activity against SARS CoV-2 infected in human Calu-3 cells measured after 24 hrs by qRT-PCR analysis; type: functional, organism-based; conditions: Severe acute respiratory syndrome coronavirus 2, Calu-3, 24 h
[17] = Cytotoxicity against African green monkey Vero E6 cells incubated for 3 hrs by CCK-8 assay; type: toxicity, cell-based, Vero C1008; conditions: chlorocebus sabaeus
SARS-CoV-2 [18] = experiment: Antiviral activity against SARS CoV-2 clinical isolate 2019-nCoV/USA-WA1/2020 infected in African green monkey Vero E6 cells incubated for 48 hrs by CellTiter-Glo assay; type: functional, organism-based; conditions: Severe acute respiratory syndrome coronavirus 2, 2019-nCoV/USA-WA1/2020, Vero C1008, 48 h
[19] = Cytotoxicity against African green monkey Vero E6 cells infected with SARS CoV-2 clinical isolate 2019-nCoV/USA-WA1/2020 incubated for 48 hrs by CellTiter-Glo assay; type: toxicity, cell-based, Vero C1008; conditions: chlorocebus sabaeus
SARS-CoV-2 [20] = experiment: Antiviral activity against SARS CoV-2 clinical isolate 2019-nCoV/USA-WA1/2020 infected in human Calu-3 cells measured after 72 hrs by plaque assay; type: functional, organism-based; conditions: Severe acute respiratory syndrome coronavirus 2, 2019-nCoV/USA-WA1/2020, Calu-3, 72 h
[21] = Oral bioavailability in CD1 mouse at 50 mg/kg administered as single dose by LC-MS/MS analysis; type: ADME, organism-based; conditions: in vivo
[22] = Oral bioavailability in CD1 mouse at 150 mg/kg administered as single dose by LC-MS/MS analysis; type: ADME, organism-based; conditions: in vivo
[23] = Oral bioavailability in CD1 mouse at 500 mg/kg administered as single dose by LC-MS/MS analysis; type: ADME, organism-based; conditions: in vivo
[24] = Half life in CD1 mouse at 50 mg/kg, po administered as single dose by LC-MS/MS analysis; type: ADME, organism-based; conditions: in vivo
[25] = Half life in CD1 mouse at 150 mg/kg, po administered as single dose by LC-MS/MS analysis; type: ADME, organism-based; conditions: in vivo
[26] = Half life in CD1 mouse at 500 mg/kg, po administered as single dose by LC-MS/MS analysis; type: ADME, organism-based; conditions: in vivo
[27] = Drug distribution in CD1 mouse liver at 150 to 500 mg/kg, po measured after 8 hrs by LC-MS/MS analysis; type: ADME, organism-based; conditions: in vivo, dose 150-500 mg/kg
SARS-CoV = experiment: Antiviral activity against […] infected in HAE cells incubated for 48 hrs by qRT-PCR analysis; type: functional, organism-based
[28] = system: Middle East respiratory syndrome-related coronavirus; experiment: Antiviral activity against […] infected in HAE cells incubated for 48 hrs by qRT-PCR analysis; type: functional, organism-based

**Q.** With `CC(=O)N[C@@H](CCc1nc2ccccc2s1)C(=O)N[C@@H](CN)C(=O)NCC(=O)NC/C=C/C(=O)O` as the compound, how does the IC50 [1] read?
**A.** The IC50 was 10000 nM.

**Q.** For `CC(=O)N[C@@H](CCc1ccc(O)cc1)C(=O)N[C@@H](CN)C(=O)NCC(=O)NC/C=C/C(=O)O`, which IC50 [1] is on record?
**A.** Its IC50 is 10000 nM.

**Q.** Which EC50 (SARS-CoV-2 [2]) does the source give for `O=C[C@H](C[C@@H]1CCNC1=O)NC(=O)[C@H](CC1CC1)NC(=O)c1cc2ccccc2[nH]1` here?
**A.** Its EC50 is 520 nM.

**Q.** What about the IC50 [3] of the same compound?
**A.** The IC50 was 53 nM.

**Q.** What about the CC50 [4] of the same compound?
**A.** The CC50 was greater than 100000 nM.

**Q.** And the half-life [5]?
**A.** The half-life was 4.4 h.

**Q.** And the clearance [6]?
**A.** Its clearance is 17 mL/min/kg.

**Q.** And the Cmax [7]?
**A.** Its Cmax is greater than 2360 ng/mL.

**Q.** What about the bioavailability [8] of the same compound?
**A.** Its bioavailability is greater than 85%.

**Q.** What about the half-life [9] of the same compound?
**A.** The half-life was 7.6 h.

**Q.** And the half-life [10]?
**A.** Its half-life is 5.5 h.

**Q.** What about the clearance [11] of the same compound?
**A.** Its clearance is 4.01 mL/min/kg.

**Q.** What about the clearance [12] of the same compound?
**A.** Its clearance is 5.8 mL/min/kg.

**Q.** What about the AUC(0-t) at 24 h [13] of the same compound?
**A.** Its AUC(0-t) at 24 h is 41500 ng·h/mL.

**Q.** And the AUC(0-t) at 24 h [14]?
**A.** The AUC(0-t) at 24 h was 14900 ng·h/mL.

**Q.** With `Nc1cccn([C@@H](CC2CC2)C(=O)N[C@@H](C[C@@H]2CCNC2=O)C(=O)C(=O)NCc2ccccc2)c1=O` as the compound, how does the IC50 [15] read?
**A.** Its IC50 is 1340 nM.

**Q.** What about the EC50 (SARS-CoV-2 [16]) of the same compound?
**A.** The EC50 was greater than 40000 nM.

**Q.** With `O=c1cc(-c2ccccc2)oc2cc(O)c(O)c(O)c12` [BAICALEIN] as the compound, how does the CC50 at 3 h [17] read?
**A.** The CC50 at 3 h was greater than 200000 nM.

**Q.** For `O=C(O)[C@H]1O[C@@H](Oc2cc3oc(-c4ccccc4)cc(=O)c3c(O)c2O)[C@H](O)[C@@H](O)[C@@H]1O` [BAICALIN], which CC50 at 3 h [17] is on record?
**A.** The CC50 at 3 h was greater than 200000 nM.

**Q.** With `O=c1nc(NO)ccn1[C@@H]1O[C@H](CO)[C@@H](O)[C@H]1O` [N-HYDROXYCYTIDINE] as the compound, how does the EC50 (SARS-CoV-2 [18]) read?
**A.** The EC50 was 300 nM.

**Q.** What about the CC50 at 48 h [19] of the same compound?
**A.** Its CC50 at 48 h is greater than 10000 nM.

**Q.** What about the EC50 (SARS-CoV-2 [20]) of the same compound?
**A.** Its EC50 is 80 nM.

**Q.** What about the bioavailability [21] of the same compound?
**A.** Its bioavailability is 56%.

**Q.** What about the bioavailability [22] of the same compound?
**A.** Its bioavailability is 43%.

**Q.** And the bioavailability [23]?
**A.** The bioavailability was 36%.

**Q.** What about the half-life [24] of the same compound?
**A.** The half-life was 5.2 h.

**Q.** And the half-life [25]?
**A.** The half-life was 3.2 h.

**Q.** And the half-life [26]?
**A.** Its half-life is 2.7 h.

**Q.** What about the Drug uptake [27] of the same compound?
**A.** The Drug uptake was 10 nmol/g.

**Q.** What about the EC50 (SARS-CoV) of the same compound?
**A.** Its EC50 is 140 nM.

**Q.** What about the EC50 [28] of the same compound?
**A.** Its EC50 is 24 nM.
